# From patent publication US20240409482A1, “Novel Compound and Organic Light Emitting Device Comprising the Same” (LG Chem, Ltd., priority 2022, published 2024)
# Assay: Solubility measurement in cyclohexanone
# Format: physicochemical
# Parameters: key to Solubility (1.3 wt %): “O” means that the compound was easily dissolved in cyclohexanone; “A” means that the compound was dissolved in cyclohexanone at 80° C.; “X” means that the compound is not soluble in cyclohexanone
# Details: cyclohexanone, concentration of 1.3 wt %, room temperature
# Protocol: It was confirmed whether each of Compounds 1 to 14, Compound A and Compound B prepared in Preparation Examples could be dissolved in cyclohexanone at a concentration of 1.3 wt % at 25° C., and the results are shown in Table 1 below. At this time, “O” means that the compound was easily dissolved in cyclohexanone, “A” means that the compound was dissolved in cyclohexanone at 80° C., and “X” means that the compound is not soluble in cyclohexanone.
row,Compound,"Solubility in cyclohexanone, result in words"
1,c1ccc(-c2c3ccccc3c(-c3ccc(-c4ccc5cc(-c6ccc7cc(-c8c9ccccc9c(-c9ccccc9)c9ccccc89)ccc7c6)ccc5c4)cc3)c3ccccc23)cc1 [Compound A],could not be dissolved at room temperature
2,"c1ccc2c(-c3ccc(-c4c5ccccc5c(-c5ccc(-c6cccc7c(-c8cccc9ccc(-c%10ccc(-c%11c%12ccccc%12c(-c%12cccc%13ccccc%12%13)c%12ccccc%11%12)cc%10)cc89)cccc67)cc5)c5ccccc45)cc3)cccc2c1 [Compound B, reference compound]",could not be dissolved at room temperature

# Same assay, conditions: in cyclohexanone at a concentration of 1.3 wt % at 25° C.
row,Compound,Solubility (1.3 wt %)
1,c1ccc2cc(-c3c4ccccc4c(-c4ccc(-c5cccc6ccc(-c7ccc8cccc(-c9c%10ccccc%10c(-c%10ccc%11ccccc%11c%10)c%10ccccc9%10)c8c7)cc56)cc4)c4ccccc34)ccc2c1 [Compound 1],◯
2,c1ccc2cc(-c3ccc(-c4c5ccccc5c(-c5cccc6ccc(-c7ccc8cccc(-c9c%10ccccc%10c(-c%10ccc%11ccccc%11c%10)c%10ccccc9%10)c8c7)cc56)c5ccccc45)cc3)ccc2c1 [Compound 2],◯
3,c1ccc2cc(-c3c4ccccc4c(-c4cccc5ccc(-c6ccc7cccc(-c8c9ccccc9c(-c9ccc(-c%10cccc%11ccccc%10%11)cc9)c9ccccc89)c7c6)cc45)c4ccccc34)ccc2c1 [Compound 3],◯
4,c1cc(-c2cccc3ccc(-c4ccc5cccc(-c6c7ccccc7c(-c7ccc8ccccc8c7)c7ccccc67)c5c4)cc23)cc(-c2c3ccccc3c(-c3cccc4ccccc34)c3ccccc23)c1 [Compound 4],◯
5,c1cc(-c2cccc3ccc(-c4ccc5cccc(-c6c7ccccc7c(-c7ccc8ccccc8c7)c7ccccc67)c5c4)cc23)cc(-c2c3ccccc3c(-c3ccc4ccccc4c3)c3ccccc23)c1 [Compound 5],◯
6,c1cc(-c2ccc(-c3c4ccccc4c(-c4cccc5ccccc45)c4ccccc34)cc2)c2cc(-c3ccc4cccc(-c5c6ccccc6c(-c6cccc7oc8ccccc8c67)c6ccccc56)c4c3)ccc2c1 [Compound 6],◯
7,c1cc(-c2cccc3ccc(-c4ccc5cccc(-c6c7ccccc7c(-c7ccc8oc9ccccc9c8c7)c7ccccc67)c5c4)cc23)cc(-c2c3ccccc3c(-c3ccc4ccccc4c3)c3ccccc23)c1 [Compound 7],◯
8,c1cc(-c2ccc(-c3c4ccccc4c(-c4cccc5ccccc45)c4ccccc34)cc2)c2cc(-c3ccc4cccc(-c5c6ccccc6c(-c6ccc7oc8ccccc8c7c6)c6ccccc56)c4c3)ccc2c1 [Compound 8],◯
9,c1ccc2c(-c3c4ccccc4c(-c4ccc(-c5ccc6ccc(-c7ccc8ccc(-c9c%10ccccc%10c(-c%10ccc%11oc%12ccccc%12c%11c%10)c%10ccccc9%10)cc8c7)cc6c5)cc4)c4ccccc34)cccc2c1 [Compound 9],◯
10,c1ccc2cc(-c3c4ccccc4c(-c4ccc5ccc(-c6ccc7ccc(-c8c9ccccc9c(-c9ccc(-c%10cccc%11ccccc%10%11)cc9)c9ccccc89)cc7c6)cc5c4)c4ccccc34)ccc2c1 [Compound 10],◯
11,c1ccc2cc(-c3c4ccccc4c(-c4ccc(-c5cccc6cc(-c7ccc8c(-c9c%10ccccc%10c(-c%10ccc%11ccccc%11c%10)c%10ccccc9%10)cccc8c7)ccc56)cc4)c4ccccc34)ccc2c1 [Compound 11],◯
12,c1cc(-c2ccc(-c3c4ccccc4c(-c4cccc5ccccc45)c4ccccc34)cc2)c2ccc(-c3ccc4c(-c5c6ccccc6c(-c6ccc7oc8ccccc8c7c6)c6ccccc56)cccc4c3)cc2c1 [Compound 12],◯
13,c1ccc(-c2c3ccccc3c(-c3ccc(-c4ccc5cc(-c6ccc7cc(-c8c9ccccc9c(-c9ccccc9)c9ccccc89)ccc7c6)ccc5c4)cc3)c3ccccc23)cc1 [Compound A],X
14,"c1ccc2c(-c3ccc(-c4c5ccccc5c(-c5ccc(-c6cccc7c(-c8cccc9ccc(-c%10ccc(-c%11c%12ccccc%12c(-c%12cccc%13ccccc%12%13)c%12ccccc%11%12)cc%10)cc89)cccc67)cc5)c5ccccc45)cc3)cccc2c1 [Compound B, reference compound]",Δ
